Measured values taken from PubChem BioAssay AID2060882 (Molecular Pharmacology Branch, DTP, NCI, 2025).
Values belong to the compound of their own block, whether it stands above or below them.

Test system: 898857-211-R-J1-PDC complex spheroids, growth % test/control
Assay: Anticancer human tumor 898857-211-R-J1-PDC patient-derived melanoma cell line growth inhibition [RAS]
Settings: for viability, T/C: stronger effect = lower value
Method in brief: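 Tumour cells grown as complex spheroids with HUVEC endothelial cells and mesenchymal stem cells, treated with RAS pathway inhibitor combinations. Each agent spans half-log steps from near clinical Cmax, or 10 microM where Cmax is unknown.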

[1] = curve of first compound, second compound 0.000949 µM
[2] = curve of first compound, second compound 0.003 µM
[3] = curve of first compound, second compound 0.00949 µM
[4] = curve of first compound, second compound 0.03 µM
[5] = curve of first compound, second compound 0.0949 µM
[6] = curve of first compound, second compound 0.3 µM
[7] = second compound 0.000949 µM, first compound 0.0316 µM
[8] = second compound 0.000949 µM, first compound 0.1 µM
[9] = second compound 0.000949 µM, first compound 0.316 µM
[10] = second compound 0.000949 µM, first compound 1 µM
[11] = second compound 0.003 µM, first compound 0.0316 µM
[12] = second compound 0.003 µM, first compound 0.1 µM
[13] = second compound 0.003 µM, first compound 0.316 µM
[14] = second compound 0.003 µM, first compound 1 µM
[15] = second compound 0.00949 µM, first compound 0.0316 µM
[16] = second compound 0.00949 µM, first compound 0.1 µM
[17] = second compound 0.00949 µM, first compound 0.316 µM
[18] = second compound 0.00949 µM, first compound 1 µM
[19] = second compound 0.03 µM, first compound 0.0316 µM
[20] = second compound 0.03 µM, first compound 0.1 µM
[21] = second compound 0.03 µM, first compound 0.316 µM
[22] = second compound 0.03 µM, first compound 1 µM
[23] = second compound 0.0949 µM, first compound 0.0316 µM
[24] = second compound 0.0949 µM, first compound 0.1 µM
[25] = second compound 0.0949 µM, first compound 0.316 µM
[26] = second compound 0.0949 µM, first compound 1 µM
[27] = second compound 0.3 µM, first compound 0.0316 µM
[28] = second compound 0.3 µM, first compound 0.1 µM
[29] = second compound 0.3 µM, first compound 0.316 µM
[30] = second compound 0.3 µM, first compound 1 µM
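Also: spheroids exposed to compound for seven days before readout.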
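For viability, T/C in this document: 100% = DMSO vehicle control wells.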

IC50 (curve of compound): > 10 µM
SMILES: CC(Nc1ccc2c(c1)OCCn1cc(N3C(=O)OCC3C(F)F)nc1-2)C(N)=O (stereo not drawn)
viability, T/C (compound 0.0316 µM): 101% [middle of 4 runs]
viability, T/C (compound 0.1 µM): 90.6% [middle of 4 runs]
viability, T/C (compound 0.316 µM): 102% [middle of 4 runs]
viability, T/C (compound 1 µM): 91.9% [middle of 4 runs]
viability, T/C (compound 3.16 µM): 95.3% [middle of 4 runs]
viability, T/C (compound 10 µM): 70.9% [middle of 4 runs]

IC50 (curve of first compound, second compound 0.0316 µM): > 1 µM
IC50 (curve of first compound, second compound 0.1 µM): > 1 µM
IC50 (curve of first compound, second compound 0.316 µM): > 1 µM
IC50 (curve of first compound, second compound 1 µM): > 1 µM
IC50 (curve of first compound, second compound 3.16 µM): > 1 µM
IC50 (curve of first compound, second compound 10 µM): < 0.00316 µM
SMILES: C=CC(=O)N1CCN(c2nc(OCC3CCCN3C)nc3c(F)c(-c4nc(N)cc(C)c4C(F)(F)F)c(Cl)cc23)C(C)C1 (stereo not drawn) + C#Cc1c(F)ccc2cc(O)cc(-c3ncc4c(N5CC6CCC(C5)N6)nc(OCC56CCCN5CC(F)C6)nc4c3F)c12
viability, T/C (second compound 0.0316 µM, first compound 0.00316 µM): 107%
viability, T/C (second compound 0.0316 µM, first compound 0.01 µM): 92.9%
viability, T/C (second compound 0.0316 µM, first compound 0.0316 µM): 103%
viability, T/C (second compound 0.0316 µM, first compound 0.1 µM): 103%
viability, T/C (second compound 0.0316 µM, first compound 0.316 µM): 117%
viability, T/C (second compound 0.0316 µM, first compound 1 µM): 118%
viability, T/C (second compound 0.1 µM, first compound 0.00316 µM): 109%
viability, T/C (second compound 0.1 µM, first compound 0.01 µM): 107%
viability, T/C (second compound 0.1 µM, first compound 0.0316 µM): 109%
viability, T/C (second compound 0.1 µM, first compound 0.1 µM): 105%
viability, T/C (second compound 0.1 µM, first compound 0.316 µM): 126%
viability, T/C (second compound 0.1 µM, first compound 1 µM): 117%
viability, T/C (second compound 0.316 µM, first compound 0.00316 µM): 95.8%
viability, T/C (second compound 0.316 µM, first compound 0.01 µM): 91.4%
viability, T/C (second compound 0.316 µM, first compound 0.0316 µM): 100%
viability, T/C (second compound 0.316 µM, first compound 0.1 µM): 96%
viability, T/C (second compound 0.316 µM, first compound 0.316 µM): 114%
viability, T/C (second compound 0.316 µM, first compound 1 µM): 129%
viability, T/C (second compound 1 µM, first compound 0.00316 µM): 104%
viability, T/C (second compound 1 µM, first compound 0.01 µM): 102%
viability, T/C (second compound 1 µM, first compound 0.0316 µM): 101%
viability, T/C (second compound 1 µM, first compound 0.1 µM): 104%
viability, T/C (second compound 1 µM, first compound 0.316 µM): 105%
viability, T/C (second compound 1 µM, first compound 1 µM): 98.9%
viability, T/C (second compound 3.16 µM, first compound 0.00316 µM): 99.4%
viability, T/C (second compound 3.16 µM, first compound 0.01 µM): 93.5%
viability, T/C (second compound 3.16 µM, first compound 0.0316 µM): 86.6%
viability, T/C (second compound 3.16 µM, first compound 0.1 µM): 106%
viability, T/C (second compound 3.16 µM, first compound 0.316 µM): 116%
viability, T/C (second compound 3.16 µM, first compound 1 µM): 87.3%
viability, T/C (second compound 10 µM, first compound 0.00316 µM): 56.5%
viability, T/C (second compound 10 µM, first compound 0.01 µM): 39.5%
viability, T/C (second compound 10 µM, first compound 0.0316 µM): 41.1%
viability, T/C (second compound 10 µM, first compound 0.1 µM): 50.5%
viability, T/C (second compound 10 µM, first compound 0.316 µM): 21.3%
viability, T/C (second compound 10 µM, first compound 1 µM): 1.25%

IC50 [1]: 0.00375 µM
IC50 [2]: 0.00367 µM
IC50 [3]: 0.00467 µM
IC50 [4]: 0.0033 µM
IC50 [5]: < 0.00316 µM
IC50 [6]: < 0.00316 µM
SMILES: O=C(c1ccc(F)c(F)c1Nc1ccc(I)cc1F)N1CC(O)([C@@H]2CCCCN2)C1 + CCn1c(-c2cccnc2C(C)OC)c2c3cc(ccc31)N1CCOC(CC(NC(=O)C(C(C)C)N(C)C(=O)C3(F)CCN(C(=O)C#CC(C)(C)N(C)C)CC3)C(=O)N3CCCC(N3)C(=O)OCC(C)(C)C2)C1
viability, T/C (second compound 0.000949 µM, first compound 0.00316 µM): 53.5%
viability, T/C (second compound 0.000949 µM, first compound 0.01 µM): 36.4%
viability, T/C [7]: 29.6%
viability, T/C [8]: 23.9%
viability, T/C [9]: 16.6%
viability, T/C [10]: 12%
viability, T/C (second compound 0.003 µM, first compound 0.00316 µM): 52.9%
viability, T/C (second compound 0.003 µM, first compound 0.01 µM): 35.4%
viability, T/C [11]: 26.5%
viability, T/C [12]: 22.4%
viability, T/C [13]: 15.9%
viability, T/C [14]: 11.8%
viability, T/C (second compound 0.00949 µM, first compound 0.00316 µM): 55.8%
viability, T/C (second compound 0.00949 µM, first compound 0.01 µM): 39.3%
viability, T/C [15]: 27.3%
viability, T/C [16]: 21.6%
viability, T/C [17]: 15.7%
viability, T/C [18]: 12.7%
viability, T/C (second compound 0.03 µM, first compound 0.00316 µM): 50.5%
viability, T/C (second compound 0.03 µM, first compound 0.01 µM): 35.5%
viability, T/C [19]: 21.8%
viability, T/C [20]: 20.4%
viability, T/C [21]: 15.6%
viability, T/C [22]: 12.4%
viability, T/C (second compound 0.0949 µM, first compound 0.00316 µM): 44.8%
viability, T/C (second compound 0.0949 µM, first compound 0.01 µM): 35.4%
viability, T/C [23]: 28.3%
viability, T/C [24]: 18.2%
viability, T/C [25]: 15.6%
viability, T/C [26]: 13.4%
viability, T/C (second compound 0.3 µM, first compound 0.00316 µM): 33.8%
viability, T/C (second compound 0.3 µM, first compound 0.01 µM): 29.3%
viability, T/C [27]: 20.9%
viability, T/C [28]: 16.6%
viability, T/C [29]: 13.6%
viability, T/C [30]: 10.7%

IC50 [1]: 0.594 µM
IC50 [2]: 0.589 µM
IC50 [3]: 0.609 µM
IC50 [4]: 0.571 µM
IC50 [5]: 0.615 µM
IC50 [6]: 0.604 µM
SMILES: CCC(CC)c1cc(NC2CCC(N)C2)n2nccc2n1 (stereo not drawn) + CCn1c(-c2cc(N3CCN(C)CC3)cnc2C(C)OC)c2c3cc(ccc31)-c1csc(n1)CC(NC(=O)C1CC1C)C(=O)N1CCCC(N1)C(=O)OCC(C)(C)C2
viability, T/C [7]: 113%
viability, T/C [8]: 100%
viability, T/C [9]: 87.1%
viability, T/C [10]: 19.7%
viability, T/C (second compound 0.000949 µM, first compound 3.16 µM): 0.45%
viability, T/C (second compound 0.000949 µM, first compound 10 µM): 0.75%
viability, T/C [11]: 95.1%
viability, T/C [12]: 94%
viability, T/C [13]: 82%
viability, T/C [14]: 22.8%
viability, T/C (second compound 0.003 µM, first compound 3.16 µM): 0.27%
viability, T/C (second compound 0.003 µM, first compound 10 µM): 0.25%
viability, T/C [15]: 92.2%
viability, T/C [16]: 105%
viability, T/C [17]: 84.4%
viability, T/C [18]: 23.6%
viability, T/C (second compound 0.00949 µM, first compound 3.16 µM): 0.8%
viability, T/C (second compound 0.00949 µM, first compound 10 µM): 0.2%
viability, T/C [19]: 102%
viability, T/C [20]: 89.5%
viability, T/C [21]: 80.9%
viability, T/C [22]: 21.2%
viability, T/C (second compound 0.03 µM, first compound 3.16 µM): 0.38%
viability, T/C (second compound 0.03 µM, first compound 10 µM): 0.27%
viability, T/C [23]: 109%
viability, T/C [24]: 102%
viability, T/C [25]: 86.3%
viability, T/C [26]: 23.8%
viability, T/C (second compound 0.0949 µM, first compound 3.16 µM): 0.81%
viability, T/C (second compound 0.0949 µM, first compound 10 µM): 0.19%
viability, T/C [27]: 104%
viability, T/C [28]: 105%
viability, T/C [29]: 84.8%
viability, T/C [30]: 22.9%
viability, T/C (second compound 0.3 µM, first compound 3.16 µM): 0.32%
viability, T/C (second compound 0.3 µM, first compound 10 µM): 0.26%
